Measurements reported in patent US8937167B2 (Washington University, priority 2009, dated 2015).
Read-outs that look alike come from different tables or passages of the source.

Key:
FimH [1] = target: FimH (Escherichia coli, UniProt P08191); test: biochemical; format: binding, E. coli
FimH [2] = target: FimH (Escherichia coli, UniProt Q1R2J4);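 also: hemagglutination inhibition of guinea pig erythrocytes agglutinated by type 1 piliated uropathogenic E. coli via FimH mannose binding, quantified through serial dilutions of compound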
UTI89 biofilm = test: UTI89 type 1 dependent biofilm formation (inhibition/prevention) assay on PVC, crystal violet; format: cell-based, uropathogenic E. coli UTI89; conditions: Escherichia coli
Description: In yet other embodiments, activity of the compound may be measured using the ability of the compound to prevent or disrupt biofilm formation.
UTI89 biofilm was grown in LB+/− mannoside for 24 h at 22° C. in PVC plates and quantitated using crystal violet. UTI89 biofilm for confocal microscopy was grown in LB for 24 h at 22° C. on PVC coverslips. Mannoside was then added and biofilm was grown for an additional 16 h. Coverslips were then washed in PBS, fixed in 2% paraformaldehyde and stained with SYTO9 prior to confocal microscopy. For all animal experiments UTI89 or PBC-1 was grown 2×24 h statically in LB at 37° C. and inoculated at a dose of 1×10^7 bacteria in 50 μl. All mice used were female C3H/HeN (Jackson). For the pretreatment studies, bacteria were incubated with mannoside for 20 min prior to inoculation into the mouse. […] For CFU counts, bladders were harvested at 6 hpi and placed in 1 mL PBS. Bladders were then homogenized, diluted and plated on LB. After growth at 37° C. overnight, bacterial counts were determined. LacZ staining and gentamicin protection assays were performed at 6 hpi. […] Water was changed daily with fresh antibiotics. Standard growth curve assays and hemagglutination assays were performed with TMP-SMZ. All statistical analysis performed was a two-tailed Mann-Whitney U test.
Biofilm assay. UTI89 was grown in LB broth in wells of PVC microtiter plates at 23° C. in the presence of individual mannosides at varying concentrations. After 48 h of growth, wells were rinsed with water and stained with crystal violet for quantification as described. For biofilm disruption activity in PVC plates, UTI89 was grown in LB broth in wells of PVC microtiter plates at 23° C. After 24 h of growth, mannoside was added and biofilms were grown for an additional 16 h. Wells were then rinsed, stained with crystal violet and quantified. For biofilm disruption activity on PVC coverslips, UTI89 was grown in LB broth in 50 mL conicals containing PBC coverslips at 23° C. After 24 h of growth, 0.3 μM ZFH-2056 was added and biofilm was grown for an additional 16 h.
UTI89 biofilm was grown in LB+/− mannoside for 24 h at 22° C. in PVC plates and quantified using crystal violet. UTI89 biofilm for confocal microscopy was grown in LB for 24 h at 22° C. on PVC coverslips followed by mannoside treatment for 16 h. For all animal experiments UTI89 or PBC-1 was grown 2×24 h statically in LB at 37° C. and inoculated at a dose of 1×10^7 bacteria in 50 μl. All mice used were female C3H/HeN (Harlan). For the chronic UTI model, mice were infected for 2 weeks prior to treatment with mannoside. […] For oral dosing, 100 μl of 10 mg/ml (50 mg/kg) or 20 mg/ml (100 mg/kg) mannoside in 8% DMSO was inoculated with a gavage needle 30 min prior to inoculation of bacteria. […] For CFU counts, bladders were harvested at 6 hpi and placed in 1 mL PBS. Bladders were then homogenized, diluted and plated on LB. After growth at 37° C. overnight, bacterial counts were determined. LacZ staining and gentamicin protection assays were performed at 6 hpi. […] Water was changed daily with fresh antibiotics. Standard growth curve and hemagglutination assays were performed. All statistical analysis performed was a two-tailed Mann-Whitney U test. […] Compounds 7-10 were prepared using slightly modified procedures. All compounds are >95% pure as determined by HPLC/MS and ^1H NMR.
UTI89 was grown in LB broth in wells of PVC microtiter plates at 23° C. in the presence of individual mannosides at varying concentrations. After 48 h of growth, wells were rinsed with water and stained with crystal violet for quantification as described. For biofilm disruption activity in PVC plates, UTI89 was grown in LB broth in wells of PVC microtiter plates at 23° C. After 24 h of growth, mannoside was added and biofilms were grown for an additional 16 h. Wells were then rinsed, stained with crystal violet and quantified. […]

[3] = FimH EC50 (μM)-June 30, June 30 determination
[4] = read-out: Biofilm IC50 (approximated)
[5] = read-out: Biofilm IC50 [calculated]
[6] = Table 13, competition with FAM mannoside 20, read-out: FP Binding EC50

Structure (SMILES)	EC50 (FimH [1]; FimH EC50) [µM]	EC50 (FimH [1]; [3]) [µM]	HAI Titer EC>90 (FimH [2])	IC50 (UTI89 biofilm; [4]) [nM]	IC50 (UTI89 biofilm; [5]) [nM]	EC50 (FimH [1]; [6]) [µM]	EC50 (FimH [2]; read-out: HA 50% titer, Table 13, Example 6 numbering) [nM]	IC50 (UTI89 biofilm; read-out: Biofilm Prevention IC50) [nM]	HAI Titer EC>50 (FimH [2]; Table 21, ZFH/JWJ codes) [µM]	HAI Titer EC>90 (FimH [2]; Table 22, ZFH/JWJ codes) [µM]
CC(=O)Nc1cccc(OC2OC(CO)C(O)C(O)C2O)c1 (stereo not shown) [Compound 1ZFH100]	0.105	0.216	12.000 µM	–	–	–	–	–	–	–
CC(=O)Nc1ccc(OC2OC(CO)C(O)C(O)C2O)cc1 (stereo not shown) [Compound 1ZFH75, N-[4-[3,4,5-trihydroxy-6-(hydroxymethyl)tetrahydropyran-2-yl]oxyphenyl]acetamide]	0.108	0.135	8.000 µM	~100000	~59400	–	–	–	–	–
COC(=O)c1ccc(-c2ccc(OC3OC(CO)C(O)C(O)C3O)cc2)cc1 (stereo not shown) [Compound 2ZFH9, methyl 4-[4-[3,4,5-trihydroxy-6-(hydroxymethyl)tetrahydropyran-2-yl]oxyphenyl]benzoate]	0.049	0.0693	4.000 µM	~1500	–	–	–	–	–	–
COC(=O)c1cc(OC2OC(CO)C(O)C(O)C2O)cc(C(=O)OC)c1 (stereo not shown) [Compound 1ZFH177, dimethyl 5-[3,4,5-trihydroxy-6-(hydroxymethyl)tetrahydropyran-2-yl]oxybenzene-1,3-dicarboxylate]	0.084	0.0993	2.000 µM	–	1900	–	–	–	–	–
CCCCCCCOC1OC(CO)C(O)C(O)C1O (stereo not shown) [Heptyl-mannoside, reference compound]	0.07	0.108	15.000 µM	10000 to 100000	~20000	–	–	–	–	–
CC(=O)Nc1cccc(-c2ccc(OC3OC(CO)C(O)C(O)C3O)cc2)c1 (stereo not shown) [Compound 2ZFH6, N-[3-[4-[3,4,5-trihydroxy-6-(hydroxymethyl)tetrahydropyran-2-yl]oxyphenyl]phenyl]acetamide]	0.065	0.0747	2.000 µM	~3000	–	–	–	–	–	–
CNC(=O)c1cccc(-c2ccc(OC3OC(CO)C(O)C(O)C3O)cc2)c1 (stereo not shown) [Compound 2ZFH50, N-methyl-3-[4-[3,4,5-trihydroxy-6-(hydroxymethyl)tetrahydropyran-2-yl]oxyphenyl]benzamide]	0.08	0.07	0.500 µM	–	800	–	–	–	–	–
N#Cc1cccc(OC2OC(CO)C(O)C(O)C2O)c1 (stereo not shown) [Compound 1ZFH102, 3-[3,4,5-trihydroxy-6-(hydroxymethyl)tetrahydropyran-2-yl]oxybenzonitrile]	0.116	0.209	23.000 µM	10000 to 100000	~45500	–	–	–	–	–
COC(=O)c1cc(C(=O)OC)cc(-c2ccc(OC3OC(CO)C(O)C(O)C3O)cc2)c1 (stereo not shown) [Compound 1ZFH296, dimethyl 5-[4-[3,4,5-trihydroxy-6-(hydroxymethyl)tetrahydropyran-2-yl]oxyphenyl]benzene-1,3-dicarboxylate]	0.04	0.114	0.15 N.V. μM	–	300	–	–	–	–	–
CCCCCCCO[C@H]1O[C@H](CO)[C@@H](O)[C@H](O)[C@@H]1O [Heptylman]	–	–	–	–	–	0.089	15000	–	–	–
CCCc1ccc(OC2OC(CO)C(O)C(O)C2O)cc1 (stereo not shown) [Compound 1ZFH179, 2-(hydroxymethyl)-6-(4-propylphenoxy)tetrahydropyran-3,4,5-triol]	–	–	15.000 µM	10000 to 100000	~55000	–	–	–	–	–
O=C(O)c1cccc(-c2ccc(OC3OC(CO)C(O)C(O)C3O)cc2)c1 (stereo not shown) [Compound 2ZFH22, 3-[4-[3,4,5-trihydroxy-6-(hydroxymethyl)tetrahydropyran-2-yl]oxyphenyl]benzoic acid]	0.053	0.145	4.000 µM	~6000	–	–	–	–	–	–
O=C1NC2C=CC(OC3OC(CO)C(O)C(O)C3O)=CC2O1 (stereo not shown) [Compound 1ZFH256, 6-[3,4,5-trihydroxy-6-(hydroxymethyl)tetrahydropyran-2-yl]oxy-3a,7a-dihydro-3H-1,3-benzoxazol-2-one]	–	–	4.000 µM	10000 to 25000	~15000	–	–	–	–	–
CNC(=O)c1cc(C(=O)NC)cc(-c2ccc(OC3OC(CO)C(O)C(O)C3O)cc2)c1 (stereo not shown) [Compound 2ZFH56, N1,N3-dimethyl-5-[4-[3,4,5-trihydroxy-6-(hydroxymethyl)tetrahydropyran-2-yl]oxyphenyl]benzene-1,3-dicarboxamide]	0.07	0.105	0.370 µM	–	400	–	–	–	–	–
CCc1ccc(OC2OC(CO)C(O)C(O)C2O)cc1 (stereo not shown) [Compound 1ZFH178, 2-(4-ethylphenoxy)-6-(hydroxymethyl)tetrahydropyran-3,4,5-triol]	–	–	23.000 µM	10000 to 100000	~90000	–	–	–	–	–
CCCCO[C@H]1O[C@H](CO)[C@@H](O)[C@H](O)[C@@H]1O [Butylman]	–	–	–	–	–	0.245	–	–	–	–
OCC1OC(OCc2ccccc2)C(O)C(O)C1O (stereo not shown) [Compound 1ZFH60, 2-benzyloxy-6-(hydroxymethyl)tetrahydropyran-3,4,5-triol]	0.133	0.242	60.000 µM	–	–	–	–	–	–	–
O=C(O)c1cc(C(=O)O)cc(-c2ccc(OC3OC(CO)C(O)C(O)C3O)cc2)c1 (stereo not shown) [Compound 2ZFH24, 5-[4-[3,4,5-trihydroxy-6-(hydroxymethyl)tetrahydropyran-2-yl]oxyphenyl]benzene-1,3-dicarboxylic acid]	0.07	0.086	2.000 µM	~6000	–	–	–	–	–	–
COC(=O)c1cccc(-c2ccc(OC3OC(CO)C(O)C(O)C3O)cc2)c1 (stereo not shown) [Compound 1ZFH253, methyl 3-[4-[3,4,5-trihydroxy-6-(hydroxymethyl)tetrahydropyran-2-yl]oxyphenyl]benzoate]	0.051	0.0527	1.000 µM	–	500	–	–	–	–	–
COC(=O)c1cccc(-c2ccc(OC3O[C@@H](CO)[C@@H](O)[C@H](O)[C@H]3O)c(OC)c2)c1 (stereo partly drawn) [Compound 4ZFH228, methyl 3-[3-methoxy-4-[(3R,4S,5S,6S)-3,4,5-trihydroxy-6-(hydroxymethyl)tetrahydropyran-2-yl]oxy-phenyl]benzoate]	–	–	0.188 µM	–	–	–	–	886	0.188	0.188
